Test results published in publication PMC6273687, “Design, Synthesis and Biological Evaluation of Novel Primaquine-Cinnamic Acid Conjugates of the Amide and Acylsemicarbazide Type” (Molecules, 2016).

Experiments:
[1] = Interaction with the stable radical DPPH (reducing ability)
Description: To a solution of DPPH in absolute ethanol the appropriate volume of the compounds (50 or 100 µM final concentrations) dissolved in DMSO was added. The absorbance was recorded at 517 nm after 20 and 60 min at room temperature. The experiments were repeated at least in triplicate and the standard deviation of absorbance was less than 10% of the mean. NDGA was used under the same experimental conditions as a reference compound.

[2] = Inhibition of linoleic acid peroxidation (AAPH-induced); conditions: 5 × 10^−5 M
Description: For initiating the lipid peroxidation free radical AAPH was used. Final solution in the UV cuvette consisted of 10 μL linoleate sodium solution (c = 16 mM), 0.93 mL phosphate buffer (c = 0.05 M), pH 7.4, thermostated at 37 °C. 50 μL AAPH solution (c = 40 mM) and 10 μL of the tested compounds were added. The experiment was performed at 37 °C under air. The oxidation of linoleic acid sodium salt was monitored at 234 nm. The assays were repeated at least in triplicate and the standard deviation of absorbance was less than 10% of the mean. Trolox was used under the same experimental conditions as a reference compound.

SMILES	DPPH-reducing ability RA (%) ([1]; 1 × 10^−4 M, 20 min)	DPPH-reducing ability RA (%) ([1]; 1 × 10^−4 M, 60 min)	DPPH-reducing ability RA (%) ([1]; 5 × 10^−5 M, 20 min)	DPPH-reducing ability RA (%) ([1]; 5 × 10^−5 M, 60 min)	LP Inhibition (%) [2]
CC(Cc1ccc(O)c(O)c1)C(C)Cc1ccc(O)c(O)c1 (centres unmarked) [NDGA, nordihydroguaiaretic acid, reference compound]	89%	94%	83%	87%	
Cc1c(C)c2c(c(C)c1O)CCC(C)(C(=O)O)O2 (centres unmarked) [Trolox, 6-hydroxy-2,5,7,8-tetramethylchroman-2-carboxylic acid, reference compound]					88%
